Laboratory results taken from patent publication US20170152245A1 (National Taiwan University, priority 2015, published 2017).

Experiments:
washed human platelets = experiment: LDH assay in washed human platelets; assay type: cell-based; conditions: 10 μM
From the text: To begin with, potency of aggregation inhibition and estimated the IC50 of Ctkf6f2 on platelet aggregation caused by different agonists was investigated. […] In addition, the effect of Ctkf6f2 in platelet-rich plasma was also investigated. […] Furthermore, concentration-dependent inhibition curve in platelet suspension and platelet-rich plasma could be observed as well from FIG. 3. Moreover, LDH assay in washed human platelets with various Ctkf6f2 concentration used in the following experiments was performed.

mice = experiment: Pulmonary thromboembolism caused by collagen/epinephrine; assay type: in vivo; conditions: for survival rate after 1 day: n=4
Description: (A) Mice were i.v. injected with vehicle (DMSO as control), nstpbp5185 (10 μg/g) or Ctkf6f2 (10 μg/g), then injected with collagen/epinephrine to induce pulmonary embolism model. After the onset of respiratory arrest, lungs were excised. […] Histologic analysis was performed on H&E-stained sections of lung from each mouse. […] (B) Survival rate of mice injected with DMSO as control, nstpbp5185 (10 μg/g) or Ctkf6f2 (10 μg/g) after induction of pulmonary thromboembolism in 30 min, 1 hr and 24 hr (n=4). (C) Representative images of lung isolated after the onset of respiratory arrest, but while the heart was still beating, 0.5 ml of Evans blue solution was injected into the heart. Lungs were excised, and photographed.
Male mice (ICR, 25±3 g) received collagen (0.6 μg/g) plus epinephrine (0.2 μg/g) by tail vein injection. While the respiration is very weak and the heart was still beating, 0.5 mL of Evans blue solution (1% in saline; Sigma) was injected into the heart. Lungs were excised, photographed and fixed with paraldehyde, embedded into paraffin, and sectioned. Histological analysis was performed on hematoxylin and eosin-stained (H&E) sections of lung from each mouse. Nstpbp5185 (10 μg/g) or DMSO vehicle was intravenously given prior to collagen/epinephrine. Mortality after challenge was calculated as percentage of death after injection of collagen/epinephrine, the end time will be […].

rats = experiment: Gastric damage in rats; assay type: in vivo; conditions: 40 μg g^−1 oral, 3 h
Description: Rats (Wistar) were fasted overnight then given aspirin at dose of 150 mg/kg or nstpbp5185 at 40 mg/kg. Both drugs were suspended in 1% carboxymethylcellulose. Three hours later, the rats were sacrificed, the stomach excised, and the extent of hemorrhagic erosions scored by an observer unaware of treatment the rats received. Each lesion larger than 2 mm was counted for comparison. The stomach was fixed in formalin (pH, 7.4) and photographed.

mice carotid artery = experiment: FeCl3-induced thrombus formation in mice carotid artery; assay type: in vivo; conditions: intravenous administration
Description: FIG. 14 The antithrombotic activity of nstpbp5185 in FeCl3-induced thrombi formation in mice carotid artery. (A) Mice were intravenously administered with Heparin (10 or 100 U kg^−1), Aspirin (40 or 80 μg g^−1), or different doses of nstpbp5185 (B). After 5 min, FeCl3 injury was induced by a filter paper saturated with ferric chloride solution (10%). After removal of the paper, carotid blood flow (ml min^−1) was monitored continuously until thromboembolism formation or for 60 min. (C) Mice were orally administered with different doses of Aspirin and nstpbp5185 (D). Both drugs were suspended in 1% CMC. Blood flow monitoring were recorded used analyzed Labchart software (AD instruments). Data are presented as the mean±SEM (n≧3). **P<0.01 and ***P<0.001 as compared with the vehicle control (DMSO).
Mice were intravenously or orally administered with different doses of nstpbp5185.

rat carotid artery = experiment: Balloon-injury rat carotid artery model (neointima formation); assay type: in vivo; conditions: 1 or 2 mg/kg/day intraperitoneally for 2 weeks; rats
Description: We used the established rat carotid artery (CA) model of balloon angioplasty to examine the in vivo arterial response to injury^20. Briefly, male Wistar rats weighing 350-400 g were anesthetized with intraperitoneal pentobarbital (50 mg/kg), and the left CA was exposed. A Fogarty 2F embolectomy balloon catheter was inserted into the left external carotid artery through arteriotomy incision and advanced to the aortic arch. The balloon was inflated and withdrawn three times with rotation at the same pressure. Followed by removal of the catheter, the external carotid artery was ligated and the wound closed. Animals were given standard rat chow and tap water, and i.p. administered 1 and 2 mg/kg or vehicle daily for 2 weeks, at which time they were sacrificed, and the sections from both the right and left (collateral control group) CA were harvested to fix with 4% paraformaldehyde in PBS overnight for study. All procedures involving animal experiments were approved by the Institutional Animal Care and Use Committee of Collagen of Medicine, National Taiwan University.
We further determined the inhibitory effect of nstpbp5185 on neointima formation after carotid artery injury. […] (FIG. 16G) Data are quantified by the neointima/media ratio of common carotid arteries after balloon injury. […]

platelet suspension = experiment: U46619-stimulated platelet protein tyrosine phosphorylation; assay type: cell-based; conditions: 2.5 μM; U46619 1 μM
Description: FIG. 19 Effects of nstpbp5185 on U46619-stimulated protein tyrosine phosphorylation in platelet suspension. Platelets were incubated with nstpbp5185 (2.5 μM) or solvent control for 3 min and then stimulated with U46619 (1 μM) for the times indicated (second, s). Then platelets were lysed in SDS buffer and the lysates separated by SDS-PAGE (7.5%-15% acrylamide gradient) under reducing conditions. After electrophoresis, the proteins were transferred to PVDF membranes, and were incubated with several antiphosphotyrosine mAb before detection by using a peroxidase-linked second Ab and detected by chemiluminescence. Data are representative of three separate experiments.
Given the thromboxane receptor-blocking effect of nstpbp5185, the effect of nstpbp5185 on U46619-stimulated signal transduction in platelets was investigated. Stimulation of thromboxane receptors results in phosphorylation of PLCβ2 and activates downstream signaling pathway PKCα, PI3K, Syk, extracellular signal-regulated kinase (ERK) and focal adhesion kinase. The effect of nstpbp5185 on levels of protein tyrosine phosphorylation was examined in platelet cell lysates in different time course. […] In the presence of nstpbp5185 (2.5 μM), the overall pattern of protein tyrosine phosphorylation of signaling molecules during platelet activation was suppressed, including phospholipase Cβ2 (PLCβ2), FAK, PKCα, PI3-kinase, Syk and ERK.

| SMILES | cytotoxicity to platelets (LDH assay) (washed human platelets) | emboli in lung sections compared with 5185 (mice; 10 μg/g i.v.) | survival rate after 1 day (mice; 10 μg/g i.v.) [%] | gastric lesions (>2 mm) (rats) | mortality after collagen/epinephrine within 1 hr (mice; 5 and 10 μg g^−1, intravenous injection) | microemboli in lung sections (mice; nstpbp5185-treated mice vs control) | ED50 FeCl3-induced thrombus formation (mice carotid artery) | N/M ratio (neointima/media) (rat carotid artery) | protein tyrosine phosphorylation of signaling molecules (PLCβ2, FAK, PKCα, PI3-kinase, Syk, ERK) (platelet suspension) |
| --- | --- | --- | --- | --- | --- | --- | --- | --- | --- |
| Cc1ccc(-c2nc3ccc(F)cc3n2Cc2cccc(F)c2)o1 [Ctkf6f2, 6-fluoro-1-(3-fluorobenzyl)-2-(5-methyl-2-furyl)benzimidazole] | little cytotoxicity | smaller emboli | 100 | – | – | – | – | – | – |
| Cc1ccc(-c2nc3ccccc3n2Cc2ccccc2)o1 [Example 6, 1-Benzyl-2-(5-methyl-2-furyl)benzimidazole] | – | – | 100 | did not cause significant lesion | completely protected mice from death | few microemboli | ≈ 2.6 μg g^−1 | significantly inhibited | suppressed |
